Assay results from the supplement of paper PMC10307832.

How the values were obtained:
Test in all cases: relative viability (nuclei count vs DMSO), 5 days (fraction); higher = more cells survive
[1] = test system: HCC-44
In short: (§1)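 Nuclei were stained with Hoechst during a one-step fixation (final 0.05% Triton X-100, 1% formaldehyde, 1 ug/ml Hoechst) carried out 5 days after dosing, then counted on 4× images. The cells, lung cancer lines in 1536-well plates, had been dosed by pin tool the day after seeding with one drug alone or a fixed anchor-drug dose plus five library-drug doses (not always all listed) in √10 steps. Relative viability is the nuclei count in treated wells divided by that in vehicle wells, and each value is the median of duplicate plates.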

[2] = test system: NCI-H1650
In short: as §1

[3] = test system: BEN
In short: as §1

[4] = test system: NCI-H1355
In short: as §1

[5] = test system: NCI-H520
In short: as §1

[6] = test system: SW 1573
In short: as §1

[7] = test system: 201T
In short: as §1

[8] = test system: NCI-H2228
In short: as §1

[9] = test system: NCI-H838
In short: as §1

[10] = test system: NCI-H1666
In short: as §1

[11] = test system: ABC-1
In short: as §1

[12] = test system: NCI-H727
In short: as §1

[13] = test system: HCC-366
In short: as §1

[14] = test system: NCI-H1734
In short: as §1

[15] = test system: NCI-H358
In short: as §1

[16] = test system: LOU-NH91
In short: as §1

[17] = test system: NCI-H2009
In short: as §1

[18] = test system: LK-2
In short: as §1

[19] = test system: NCI-H2347
In short: as §1

[20] = test system: NCI-H1755
In short: as §1

[21] = test system: NCI-H2405
In short: as §1

[22] = test system: UMC-11
In short: as §1

[23] = test system: HCC-78
In short: as §1

With `O=c1[nH]c2ccccc2n1C1CCN(CCCC(c2ccc(F)cc2)c2ccc(F)cc2)CC1` [Pimozide] + O=C(c1cc(Cc2n[nH]c(=O)c3ccccc23)ccc1F)N1CCN(C(=O)C2CC2)CC1 [Olaparib] (partner 8 µM) the relative viability ([1]; first compound 0.08 µM) was 1, the relative viability ([1]; first compound 0.253 µM) was 1.02 and the relative viability ([1]; first compound 0.8 µM) was 0.938. It also gave a relative viability ([1]; first compound 2.53 µM) of 0.973, a relative viability ([1]; first compound 8 µM) of 0.931 and a relative viability ([2]; first compound 0.08 µM) of 0.775. For the same compound, the relative viability ([2]; first compound 0.253 µM) was 0.664, the relative viability ([2]; first compound 0.8 µM) was 0.762 and the relative viability ([2]; first compound 2.53 µM) was 0.962. For the same compound, the relative viability ([2]; first compound 8 µM) was 0.805, the relative viability ([3]; first compound 0.08 µM) was 1.15 and the relative viability ([3]; first compound 0.253 µM) was 1.15. The relative viability ([3]; first compound 0.8 µM) was 1.1, the relative viability ([3]; first compound 2.53 µM) was 1.07 and the relative viability ([3]; first compound 8 µM) was 1.29. It also gave a relative viability ([4]; first compound 0.08 µM) of 0.717, a relative viability ([4]; first compound 0.253 µM) of 0.677 and a relative viability ([4]; first compound 0.8 µM) of 0.675. For the same compound, the relative viability ([4]; first compound 2.53 µM) was 0.758, the relative viability ([4]; first compound 8 µM) was 0.689 and the relative viability ([5]; first compound 0.08 µM) was 0.33. It also gave a relative viability ([5]; first compound 0.253 µM) of 0.345, a relative viability ([5]; first compound 0.8 µM) of 0.266 and a relative viability ([5]; first compound 2.53 µM) of 0.312. The relative viability ([5]; first compound 8 µM) was 0.276, the relative viability ([6]; first compound 0.08 µM) was 0.457 and the relative viability ([6]; first compound 0.253 µM) was 0.442. The relative viability ([6]; first compound 0.8 µM) was 0.448, the relative viability ([6]; first compound 2.53 µM) was 0.38 and the relative viability ([6]; first compound 8 µM) was 0.391. For the same compound, the relative viability ([7]; first compound 0.08 µM) was 0.876, the relative viability ([7]; first compound 0.253 µM) was 0.836 and the relative viability ([7]; first compound 0.8 µM) was 0.807. The relative viability ([7]; first compound 2.53 µM) was 0.821, the relative viability ([7]; first compound 8 µM) was 0.719 and the relative viability ([8]; first compound 0.08 µM) was 0.759. The relative viability ([8]; first compound 0.253 µM) was 0.699, the relative viability ([8]; first compound 0.8 µM) was 0.555 and the relative viability ([8]; first compound 2.53 µM) was 0.45. It also gave a relative viability ([8]; first compound 8 µM) of 0.344, a relative viability ([9]; first compound 0.08 µM) of 0.772 and a relative viability ([9]; first compound 0.253 µM) of 0.757. For the same compound, the relative viability ([9]; first compound 0.8 µM) was 0.729, the relative viability ([9]; first compound 2.53 µM) was 0.719 and the relative viability ([9]; first compound 8 µM) was 0.744. It also gave a relative viability ([10]; first compound 0.08 µM) of 0.708, a relative viability ([10]; first compound 0.253 µM) of 0.737 and a relative viability ([10]; first compound 0.8 µM) of 0.787. For the same compound, the relative viability ([10]; first compound 2.53 µM) was 0.756, the relative viability ([10]; first compound 8 µM) was 0.754 and the relative viability ([11]; first compound 0.08 µM) was 0.782. The relative viability ([11]; first compound 0.253 µM) was 0.975, the relative viability ([11]; first compound 0.8 µM) was 1.21 and the relative viability ([11]; first compound 2.53 µM) was 0.618. It also gave a relative viability ([11]; first compound 8 µM) of 0.477, a relative viability ([12]; first compound 0.08 µM) of 0.731 and a relative viability ([12]; first compound 0.253 µM) of 0.674. For the same compound, the relative viability ([12]; first compound 0.8 µM) was 0.725, the relative viability ([12]; first compound 2.53 µM) was 0.549 and the relative viability ([12]; first compound 8 µM) was 0.739. The relative viability ([13]; first compound 0.08 µM) was 0.355, the relative viability ([13]; first compound 0.253 µM) was 0.332 and the relative viability ([13]; first compound 0.8 µM) was 0.373. For the same compound, the relative viability ([13]; first compound 2.53 µM) was 0.323, the relative viability ([13]; first compound 8 µM) was 0.334 and the relative viability ([14]; first compound 0.08 µM) was 0.645. For the same compound, the relative viability ([14]; first compound 0.253 µM) was 0.563, the relative viability ([14]; first compound 0.8 µM) was 0.613 and the relative viability ([14]; first compound 2.53 µM) was 0.636. For the same compound, the relative viability ([14]; first compound 8 µM) was 0.637, the relative viability ([15]; first compound 0.08 µM) was 0.596 and the relative viability ([15]; first compound 0.253 µM) was 0.583. For the same compound, the relative viability ([15]; first compound 0.8 µM) was 0.561, the relative viability ([15]; first compound 2.53 µM) was 0.508 and the relative viability ([15]; first compound 8 µM) was 0.595. For the same compound, the relative viability ([16]; first compound 0.08 µM) was 0.655, the relative viability ([16]; first compound 0.253 µM) was 0.911 and the relative viability ([16]; first compound 0.8 µM) was 0.866. It also gave a relative viability ([16]; first compound 2.53 µM) of 0.962, a relative viability ([16]; first compound 8 µM) of 0.971 and a relative viability ([17]; first compound 0.08 µM) of 0.761. For the same compound, the relative viability ([17]; first compound 0.253 µM) was 0.649, the relative viability ([17]; first compound 0.8 µM) was 0.769 and the relative viability ([17]; first compound 2.53 µM) was 0.683. The relative viability ([17]; first compound 8 µM) was 0.629, the relative viability ([18]; first compound 0.08 µM) was 0.643 and the relative viability ([18]; first compound 0.253 µM) was 0.687. The relative viability ([18]; first compound 0.8 µM) was 0.765, the relative viability ([18]; first compound 2.53 µM) was 0.693 and the relative viability ([18]; first compound 8 µM) was 0.691. The relative viability ([19]; first compound 0.08 µM) was 0.663, the relative viability ([19]; first compound 0.253 µM) was 0.556 and the relative viability ([19]; first compound 0.8 µM) was 0.577. It also gave a relative viability ([19]; first compound 2.53 µM) of 0.519, a relative viability ([19]; first compound 8 µM) of 0.587 and a relative viability ([20]; first compound 0.08 µM) of 0.879. For the same compound, the relative viability ([20]; first compound 0.253 µM) was 0.842, the relative viability ([20]; first compound 0.8 µM) was 0.845 and the relative viability ([20]; first compound 2.53 µM) was 0.825. It also gave a relative viability ([20]; first compound 8 µM) of 0.776, a relative viability ([21]; first compound 0.08 µM) of 0.833 and a relative viability ([21]; first compound 0.253 µM) of 0.826. It also gave a relative viability ([21]; first compound 0.8 µM) of 0.822, a relative viability ([21]; first compound 2.53 µM) of 0.722 and a relative viability ([21]; first compound 8 µM) of 0.693. For the same compound, the relative viability ([22]; first compound 0.08 µM) was 0.394, the relative viability ([22]; first compound 0.253 µM) was 0.356 and the relative viability ([22]; first compound 0.8 µM) was 0.417. It also gave a relative viability ([22]; first compound 2.53 µM) of 0.371, a relative viability ([22]; first compound 8 µM) of 0.466 and a relative viability ([23]; first compound 0.08 µM) of 0.832. It also gave a relative viability ([23]; first compound 0.8 µM) of 0.787, a relative viability ([23]; first compound 2.53 µM) of 0.709 and a relative viability ([23]; first compound 8 µM) of 0.749.
